In article PMC10115881, “Disrupting the α-synuclein-ESCRT interaction with a peptide inhibitor mitigates neurodegeneration in preclinical models of Parkinson’s disease” (Nature Communications, 2023):

Legend:
Assay type in all cases: cell-based, human
A53T a-syn oligomers = assay: Luciferase PCA of A53T a-syn oligomers; settings: for Effect on A53T a-syn oligomers: luciferase PCA, n=3
Description: (§1) Oligonucleotides encoding the specific peptides were synthesized and individually cloned into the pLJM1 nGFP lentiviral vector. HEK293T cells were infected with individual constructs, and cell viability was assessed using Cell Titer-Glo luminescent assay (Promega) at 72 h post infection.
(§2) Tet-off HEK293 cells stably expressing split luciferase-a-syn constructs and tet-off parent HEK293 cell lines were maintained in DMEM supplemented with 10% FBS and 1% pen/strep/glutamine. […] Cells were trypsinized from subconfluent culture and seeded in a 96-well plate at a density of 15,000 cells per well. Cells were incubated overnight at 37 °C in 5% CO2. Cells were transfected with GFP-peptide plasmids. After 6 h of incubation, 20 µL of cell medium was transferred to a black flat-bottomed 96-well plate. Fifty microliters of Working solution (Pierce Gaussia-Firefly Luciferase Dual Assay Kit, Thermo Scientific, 16181) were added into each well containing cell medium. Immediately after adding the reagent, samples were read using a luminometer with a 480 nm filter.

Parent HEK293 cells = assay: Cell Titer-Glo cell viability, parent cells; settings: for Cell viability: MG132 10 μM, 72 h; for cell viability effect of peptides: Supp Figure 1A;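 on cell viability effect of peptides: measured without MG132 proteasome inhibitor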
Description: as §1
(§3) Cells were trypsinized from subconfluent cultures as described earlier, suspended in culture media, and then seeded into triplicate wells of a 96-well plate (100 µl/well) at a density of 1.5 × 10^4 cells per well with standard culture conditions of 5% CO2 at 37 °C. Cells were infected with lentivirus expressing peptide at a MOI of 5 for 72 h or transfected with plasmid for 72 h. Cell Titer-Glo reagent was added to each well (30 µL), according to the manufacturer’s protocol and […].

[1] = system: WT a-syn expressing HEK293 cells; assay: Cell Titer-Glo cell viability, WT a-syn expressing cells; settings: WT alpha-synuclein; for Cell viability: MG132 10 μM, 72 h; for cell viability effect of peptides: Supp Figure 1A;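 on cell viability effect of peptides: measured without MG132 proteasome inhibitor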
Description: as §1, §3

[2] = system: A53T a-syn expressing HEK293 cells; assay: Cell Titer-Glo cell viability, A53T a-syn expressing cells; settings: for cell viability effect of peptides: A53T a-syn, Supp Figure 1A; for Cell viability: A53T, MG132 10 μM, 72 h; for Effect of MIM motif peptides on cell viability in A53T a-syn expressing cells: Supp Figure 1H
Description: as §1, §3

WT a-syn oligomers = assay: Luciferase PCA of WT a-syn oligomers; settings: for Oligomers %: WT oligomers, luciferase activity; for Effect on WT a-syn oligomers: luciferase PCA
Description: as §1, §2

A53T a-syn = A53T a-syn protein level in HEK293 cells by immunoblot
Description: Infected or transfected cells were scraped from six-well dishes and lysed with lysis buffer (50 mM Tris-HCl pH 7.4, 1% Nonidet P-40, 150 mM NaCl, 1 mM EDTA, 1× protease inhibitor mixture (Sigma)) for 30 min at 4 °C. The insoluble pellet was removed following a 10,000 rpm spin for 5 min at 4 °C. Lysates were analyzed by SDS-PAGE/immunoblot using 4–20% Mini-PROTEAN Tris-glycine gels (Bio-Rad), transferred to polyvinylidene fluoride (PVDF) membranes, and blocked in 5% milk containing PBS-Tween-20 (0.1%) for 1 h. PVDF membranes were then incubated with specified primary antibodies followed by incubation with horseradish peroxidase-conjugated secondary antibodies (anti-mouse HRP-linked, Cell Signaling, catalog #7076, 1:5000; anti-rabbit HRP-linked, Cell Signaling, catalog #7074, 1:5000) and detected using enhanced chemiluminescence (GE Healthcare). Anti-a-syn antibody (clone 42) was obtained from BD Biosciences (catalog #610787, 1:1000). Anti-LAMP1 antibody was obtained from Abcam (catalog #ab24170, 1:500). Anti-beta-actin antibody was obtained from Cell Signaling (13E5) (catalog #4970, 1:1000). Anti-CD63 antibody was obtained from R&D Systems (catalog #MAB50482-SP, 1:1000).

A53T a-syn oligomers as measured by luciferase activity (A53T a-syn oligomers; replicate 1)	A53T a-syn oligomers as measured by luciferase activity (A53T a-syn oligomers; replicate 2)	A53T a-syn oligomers as measured by luciferase activity (A53T a-syn oligomers; replicate 3)	Substance	Effect on A53T a-syn oligomers (A53T a-syn oligomers)	Cell viability (Parent HEK293 cells; replicate 1)	Cell viability (Parent HEK293 cells; replicate 2)	Cell viability (Parent HEK293 cells; replicate 3)	cell viability effect of peptides (Parent HEK293 cells; replicate 1)	cell viability effect of peptides (Parent HEK293 cells; replicate 2)	cell viability effect of peptides (Parent HEK293 cells; replicate 3)	Cell viability ([1]; replicate 1)	Cell viability ([1]; replicate 2)	Cell viability ([1]; replicate 3)	cell viability effect of peptides ([1]; replicate 1)	cell viability effect of peptides ([1]; replicate 2)	cell viability effect of peptides ([1]; replicate 3)	cell viability effect of peptides ([2]; replicate 1)	cell viability effect of peptides ([2]; replicate 2)	cell viability effect of peptides ([2]; replicate 3)	Cell viability ([2]; replicate 1)	further results
261554	321472	271592	IERQLKA [PDpep1.1]	significant reduction in A53T a-syn oligomers	3550	3700	3800	12600	12000	12700	4800	4300	4100	13800	13400	12900	13600	13400	12400	6400	Cell viability ([2]; replicate 2): 6200; Cell viability ([2]; replicate 3): 6100; Effect of MIM motif peptides on cell viability in A53T a-syn expressing cells ([2]; replicate 1): 6738; Effect of MIM motif peptides on cell viability in A53T a-syn expressing cells ([2]; replicate 2): 6300; Effect of MIM motif peptides on cell viability in A53T a-syn expressing cells ([2]; replicate 3): 6152; Oligomers % (WT a-syn oligomers; column 1): 106.713%; Oligomers % (WT a-syn oligomers; column 2): 81.3253%; Oligomers % (WT a-syn oligomers; column 3): 66.2651%; Oligomers % (WT a-syn oligomers; column 4): 77.4527%; Oligomers % (WT a-syn oligomers; column 5): 64.5439%; Effect on WT a-syn oligomers (WT a-syn oligomers): significant reduction in a-syn oligomers
			CHMP2B 1-199: truncated version of CHMP2B (amino acids 1–199), in which the MIM is removed																		Effect on cell survival/viability ([2]; A53T a-syn cells): rescues toxicity; Effect on A53T a-syn protein level (A53T a-syn): reduction in a-syn
251502	281836	251716	EIERQLKALG [PDpep1.2]	significant reduction in A53T a-syn oligomers	4500	5400	4100	12600	12500	13000	4000	4200	4500	13200	13400	13100	14600	15600	14800	7500	Cell viability ([2]; replicate 2): 6200; Cell viability ([2]; replicate 3): 6500; Effect of MIM motif peptides on cell viability in A53T a-syn expressing cells ([2]; replicate 1): 6674; Effect of MIM motif peptides on cell viability in A53T a-syn expressing cells ([2]; replicate 2): 6850; Effect of MIM motif peptides on cell viability in A53T a-syn expressing cells ([2]; replicate 3): 6527; Oligomers % (WT a-syn oligomers; column 1): 104.991%; Oligomers % (WT a-syn oligomers; column 2): 81.7556%; Oligomers % (WT a-syn oligomers; column 3): 72.2892%; Oligomers % (WT a-syn oligomers; column 4): 74.8709%; Oligomers % (WT a-syn oligomers; column 5): 62.3924%; Effect on WT a-syn oligomers (WT a-syn oligomers): significant reduction in a-syn oligomers
